Results reported in patent publication US8378100B2, “Phosphonate derivatives as autotaxin inhibitors” (University of Virginia Patent Foundation, priority 2008, dated 2013).

Target: recombinant human ATX (Homo sapiens, UniProt Q13822)
Assay: Choline detection assay for ATX
Assay type: biochemical
Settings: activity without test compound = 100%; for ATX activity (%) 1 μM: 1 μM test compound; for ATX activity (%) 10 μM: 10 μM test compound; for ATX activity (%) 100 μM: 100 μM test compound
Method: The phosphonate derivatives were tested in choline detection assay for ATX inhibition. The ATX activity assay was conducted in 0.1 ml, buffer: (in mM: Tris-HCl 100, pH9, NaCl 150, MgCl2 5, CoSO4 0.03, 0.05% Triton X-100), 1 mM 18:1 LPC, using recombinant human ATX with or without test compounds; incubation was for 16 hours at 37° C. The released choline was detected as follows: Samples were mixed with 0.15 ml of 50 mM TrisHCl containing 2.7 mM TOOS(N-ethyl-N-2-hydroxy-3-sulfopropyl)-m-toluidine, 2.7 mM 4-AAP (4-aminoantipyrine), 47.7 U/ml horseradish peroxidase, 18 U/ml choline oxidase, and 5 mM MgCl2. After 30 min incubation at 37° C., light absorbance (550 nm) was determined, and the amount of choline release was calculated from a standard curve.
The ATX activity was measured in the presence of the test compounds under different concentrations (100 μM, 10 μM and 1 μM). The ATX activity without TEST compounds was used as the standard (100% activity). Some β-hydroxy phosphonate derivatives inhibited ATX activity at only the highest concentration tested. […] These two compounds were synthesized from protected L-tyrosine and they are diastereomers. The less polar isomer, f17, (also known as VPC8a202) was able to inhibit 73% of ATX activity at 1 μM.

[1] = table of g1-g15 (β-keto phosphonates)

Row | Compound | ATX activity (%) 1 μM (Table 2 (f35-f44)) | ATX activity (%) 10 μM (Table 2 (f35-f44)) | ATX activity (%) 100 μM (Table 2 (f35-f44)) | ATX activity (%) 10 μM [1] | ATX activity (%) 100 μM [1] | ATX activity (%) 1 μM [1]
1 | CCCCCCCCCCCCCCCCCCCC(=O)NC(Cc1ccc(OCc2ncc(C)c(OC)c2C)cc1)C(O)CP(=O)(O)O (single isomer, unassigned) [f43] | 64% | 45% | 10% | – | – | –
2 | CCCCCCCCCCCCCCCC(=O)N[C@H](Cc1ccc(OCc2ccccc2)cc1)C(=O)CP(=O)(O)O [g3] | – | – | – | 82% | 76% | –
3 | CCCCCCCCCCCCCCCC(=O)N[C@@H](Cc1ccc(OCc2ccccc2)cc1)C(=O)CP(=O)(O)O [g4] | – | – | – | 71% | 61% | –
4 | CCCCCCCCCCCCCCCC(=O)N[C@@H](Cc1ccc(OCc2ncc(C)c(OC)c2C)cc1)C(=O)CP(=O)(O)O [g7] | – | – | – | 74% | 26% | 71%
5 | CCCCCCCCCCCCCCCC(=O)N[C@H](Cc1ccc(OC)cc1)C(=O)CP(=O)(O)O [g8] | – | – | – | 71% | 32% | 84%
6 | CCCCCCCCCCCCCCCC(=O)N[C@@H](Cc1ccc(OC)cc1)C(=O)CP(=O)(O)O [g9] | – | – | – | 68% | 45% | 96%

Further lines, results first:

Row | ATX activity (%) 1 μM (Table 2 (f35-f44)) | ATX activity (%) 10 μM (Table 2 (f35-f44)) | ATX activity (%) 100 μM (Table 2 (f35-f44)) | ATX activity (%) 10 μM [1] | ATX activity (%) 100 μM [1] | ATX activity (%) 1 μM [1] | Compound
7 | – | – | – | 97% | 75% | 104% | CCCCCCCCCCCCCCCC(=O)N[C@H](Cc1ccc(OCCC)cc1)C(=O)CP(=O)(O)O [g10]
8 | – | – | – | 97% | 72% | – | CCCCCCCCCCCCCCCC(=O)N[C@@H](Cc1ccc(OCCC)cc1)C(=O)CP(=O)(O)O [g11]
9 | – | – | – | 84% | – | 93% | CCCCCCCCCCCCCCCC(=O)N[C@H](Cc1ccc(OCCCCC)cc1)C(=O)CP(=O)(O)O [g12]
10 | – | – | – | 83% | – | 95% | CCCCCCCCCCCCCCCC(=O)N[C@@H](Cc1ccc(OCCCCC)cc1)C(=O)CP(=O)(O)O [g13]
